According to article PMC3445474 (PLoS ONE, 2012):
Several values for one entry are separate records, joined by “and”; a condition that tells them apart may be missing. Equal values may be shown once. Read-outs that look alike come from different tables or passages of the source.

Assays:
[1] = tested on: neuraminidase of influenza viruses (A/Udorn/72(H3N2), A/Chiba/2009(H1N1)pdm and B/Johannesburg/99); type: biochemical, influenza virus
[2] = tested on: bacterial and salivary neuraminidases (S. pneumoniae, saliva, A. ureafaciens, V. cholerae RDE); type: biochemical, human saliva
A/Udorn/72 virus = test: microbe, parasite or virus in culture; type: cell-based, influenza A virus; conditions: for activity at 0.25 µM: MDCK, read-out: Virus yield (progeny virus, % of control)
B/Johannesburg/99 virus = test: Virus growth inhibition assay in MDCK cells (progeny virus by plaque assay); type: cell-based, influenza B virus; conditions: for activity at 0.25 µM: read-out: Virus yield (progeny virus, % of control)
Experimental: The infectivity of viruses was determined by plaque assay as described below. Ten-fold serial dilutions of virus samples were made in Hanks balanced salt solution (HBSS; GIBCO, Gland Island, NY, USA) and 0.1 ml of the dilutions was inoculated on MDCK cell monolayers in 6-well tissue culture plates (Corning, Lowell, MA, USA). After adsorption of the virus onto the cells for 30 min at room temperature, 1.6 ml of Leibovitz’s L15 medium (GIBCO, Gland Island, NY, USA) containing 0.6% SeaKem ME agarose (Lonza, Basel, Switzerland), 1.5% gelatin (Nacalai, Kyoto, Japan) and 2.5 µg/ml TPCK-trypsin was added to each well and allowed to solidify. The plates were incubated for 3 days at 34°C and the number of plaques was counted. Infectivity was expressed as plaque forming units (pfu) per ml.
The inhibition of virus growth by neuraminidase inhibitors in the presence or absence of bacterial neuraminidase was assayed by measuring the released progeny virus in the culture fluid of infected cells. MDCK cells seeded on 12-well tissue culture plates were inoculated with 50 µl of virus suspension at a MOI of 0.001 or 0.01. After the adsorption for 1 h on ice, 1 ml MEM supplemented with 2.5 µg/ml TPCK-trypsin containing neuraminidase inhibitor and/or bacterial neuraminidase was added to each well. At the indicated times of incubation at 37°C in 5% CO2, culture media were harvested and the virus titers, performed in triplicate wells, were determined by plaque assay.

[3] = Concentration of zanamivir in sputum after oral inhalation (clinical setting); type: in vivo; conditions: minutes after oral inhalation of 10 mg of zanamivir powder
[4] = set-up: method as in PMID 10858364; conditions: 6 h after oral inhalation of 10 mg of zanamivir powder; cited from earlier work
[5] = tested on: viral and bacterial neuraminidases; type: biochemical, influenza viruses, bacteria, human saliva; conditions: read-out: IC50, viral, bacterial and saliva neuraminidases

CC(=O)N[C@H]1[C@H]([C@H](O)[C@H](O)CO)OC(C(=O)O)=C[C@@H]1N=C(N)N [zanamivir, Zanamivir]
Potency against influenza virus NA relative to bacterial neuraminidases [1]: approximately a million | Concentrations at which bacterial neuraminidases were inhibited ([2]; Figure 2A): above 10 µM | IC50 ([2]; range over S. pneumoniae, saliva, A. ureafaciens, V. cholerae RDE): 100 to 5000 µM | activity at 0.25 µM (A/Udorn/72 virus; Influenza A virus): 2% | activity at 0.25 µM (A/Udorn/72 virus; Streptococcus pneumoniae): 84% | activity at 0.25 µM (B/Johannesburg/99 virus; 250 nM zanamivir + Streptococcus pneumoniae culture supernatant (6 µunits/ml neuraminidase activity), MDCK cells, MOI 0.001, 40 hpi): 92% | activity at 0.25 µM (B/Johannesburg/99 virus; Influenza B virus, 250 nM zanamivir, MDCK cells, MOI 0.001, 40 hpi): 0.4% | Concentration of zanamivir in sputum, calculated [3]: ≤ 5,870 ng/ml and ≤ 17.5 µM | Concentration of zanamivir in sputum [4]: ≤ 1,441 ng/ml and ≤ 4.3 µM

CC(=O)N[C@H]1[C@H]([C@H](O)[C@H](O)CO)OC(C(=O)O)=C[C@@H]1O [DANA, 2-Deoxy-2,3-dehydro-N-acetylneuraminic acid]
IC50 [5]: 2 to 20 µM | Effect on influenza virus production (A/Udorn/72 virus): inhibited influenza virus production | Restoration of virus production by S. pneumoniae culture supernatant (A/Udorn/72 virus): not restored | Restoration of virus production by S. pneumoniae culture supernatant (B/Johannesburg/99 virus; 2.5 mM DANA + S. pneumoniae culture supernatant): not restored | Effect on influenza virus production (B/Johannesburg/99 virus; 2.5 mM DANA, MDCK cells, MOI 0.001, 40 hpi): inhibited influenza virus production
